Source: ChEMBL document CHEMBL1201862, “PubChem BioAssay data set” (2004)
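Results reflect a 48-hour exposure of cells in 96-well plates to compound at five concentrations. GI50 is the concentration that inhibits growth by half.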 Active and inactive are the calls of the source. Cut-off read from the data, not from the text of the source: active = GI50 up to about 1.1 µM and inactive = higher.

Assays:
Test in all cases: NCI-60 cell line screen, 48 h
786-0 = test system: 786-0
A498 = test system: A498
ACHN = test system: ACHN
BT-549 = test system: BT-549
CAKI-1 = test system: CAKI-1
CCRF-CEM = test system: CCRF-CEM
COLO 205 = test system: COLO 205
DU-145 = test system: DU-145
EKVX = test system: EKVX
HCC 2998 = test system: HCC 2998
HCT-116 = test system: HCT-116
HCT-15 = test system: HCT-15
HL-60 = test system: HL-60
HOP-62 = test system: HOP-62
HOP-92 = test system: HOP-92
HT-29 = test system: HT-29
Hs-578T = test system: Hs-578T
IGROV-1 = test system: IGROV-1
K562 = test system: K562
KM12 = test system: KM12
LOX IMVI = test system: LOX IMVI
M14 = test system: M14
MCF7 = test system: MCF7
MDA-MB-231 = test system: MDA-MB-231
MDA-MB-435 = test system: MDA-MB-435
MDA-N = test system: MDA-N
MOLT-4 = test system: MOLT-4
Malme-3M = test system: Malme-3M
NCI-H226 = test system: NCI-H226
NCI-H23 = test system: NCI-H23
NCI-H460 = test system: NCI-H460
NCI-H522 = test system: NCI-H522
NCI/ADR-RES = test system: NCI/ADR-RES
OVCAR-3 = test system: OVCAR-3
OVCAR-4 = test system: OVCAR-4
OVCAR-5 = test system: OVCAR-5
OVCAR-8 = test system: OVCAR-8
PC-3 = test system: PC-3
RPMI-8226 = test system: RPMI-8226
RXF 393 = test system: RXF 393
SF-268 = test system: SF-268
SF-295 = test system: SF-295
SF-539 = test system: SF-539
SK-MEL-28 = test system: SK-MEL-28
SK-MEL-2 = test system: SK-MEL-2
SK-MEL-5 = test system: SK-MEL-5
SK-OV-3 = test system: SK-OV-3
SN12C = test system: SN12C
SNB-19 = test system: SNB-19
SNB-75 = test system: SNB-75
SR = test system: SR
SW-620 = test system: SW-620
T47D = test system: T47D
TK-10 = test system: TK-10
U-251 = test system: U-251
UACC-257 = test system: UACC-257
UACC-62 = test system: UACC-62
UO-31 = test system: UO-31
A549 = test system: A549

SMILES: COC(=O)C(Cc1ccccc1)C(=O)NC(CNC(=O)OCc1ccccc1)C(=O)OCc1ccccc1 (stereo not given)
- GI50 (786-0): 25.9 µM (inactive)
- GI50 (A498): > 47.8 µM (inactive)
- GI50 (ACHN): 34.6 µM (inactive)
- GI50 (BT-549): 53.3 µM (inactive)
- GI50 (CAKI-1): 36.8 µM (inactive)
- GI50 (CCRF-CEM): 14.7 µM (inactive)
- GI50 (COLO 205): 19.8 µM (inactive)
- GI50 (DU-145): 66.5 µM (inactive)
- GI50 (EKVX): 76.7 µM (inactive)
- GI50 (HCC 2998): 30.8 µM (inactive)
- GI50 (HCT-116): 31.9 µM (inactive)
- GI50 (HCT-15): 45.7 µM
- GI50 (HL-60): 30.9 µM (inactive)
- GI50 (HOP-62): > 100 µM (inactive)
- GI50 (HOP-92): 32.1 µM (inactive)
- GI50 (HT-29): 29.3 µM (inactive)
- GI50 (Hs-578T): > 63.5 µM (inactive)
- GI50 (IGROV-1): 65.6 µM (inactive)
- GI50 (K562): 15.6 µM (inactive)
- GI50 (KM12): 58.9 µM (inactive)
- GI50 (LOX IMVI): 19.6 µM (inactive)
- GI50 (M14): 15.3 µM (inactive)
- GI50 (MCF7): > 100 µM (inactive)
- GI50 (MDA-MB-231): 20.8 µM (inactive)
- GI50 (MDA-MB-435): 21.8 µM (inactive)
- GI50 (MDA-N): 21.4 µM (inactive)
- GI50 (MOLT-4): 11.8 µM (inactive)
- GI50 (Malme-3M): 19.8 µM (inactive)
- GI50 (NCI-H226): 32.1 µM (inactive)
- GI50 (NCI-H23): 43.6 µM (inactive)
- GI50 (NCI-H460): 42.1 µM (inactive)
- GI50 (NCI-H522): 26.7 µM (inactive)
- GI50 (NCI/ADR-RES): 27 µM (inactive)
- GI50 (OVCAR-3): 20 µM (inactive)
- GI50 (OVCAR-4): 38.3 µM (inactive)
- GI50 (OVCAR-5): > 100 µM (inactive)
- GI50 (OVCAR-8): 63.1 µM (inactive)
- GI50 (PC-3): 38.2 µM (inactive)
- GI50 (RPMI-8226): 21.4 µM (inactive)
- GI50 (RXF 393): 21.8 µM (inactive)
- GI50 (SF-268): 44.8 µM (inactive)
- GI50 (SF-295): 47.1 µM (inactive)
- GI50 (SF-539): 40.6 µM (inactive)
- GI50 (SK-MEL-28): 19.3 µM (inactive)
- GI50 (SK-MEL-2): 24.1 µM (inactive)
- GI50 (SK-MEL-5): 18.8 µM (inactive)
- GI50 (SK-OV-3): > 100 µM (inactive)
- GI50 (SN12C): 49.8 µM (inactive)
- GI50 (SNB-19): 86.3 µM (inactive)
- GI50 (SNB-75): 23.3 µM (inactive)
- GI50 (SR): 24 µM (inactive)
- GI50 (SW-620): 38.1 µM (inactive)
- GI50 (T47D): 36.1 µM (inactive)
- GI50 (TK-10): 33.7 µM (inactive)
- GI50 (U-251): 49.1 µM (inactive)
- GI50 (UACC-257): 17.6 µM (inactive)
- GI50 (UACC-62): 23.6 µM (inactive)
- GI50 (UO-31): 28.6 µM (inactive)

SMILES: C=C1C(=O)OC2CC3(CO3)C3C(O)C(O)CC3(C)CC12 (stereo not given)
- GI50 (786-0): 76.9 µM (inactive)
- GI50 (A498): 28.4 µM (inactive)
- GI50 (A549): 40.9 µM (inactive)
- GI50 (ACHN): 19.7 µM (inactive)
- GI50 (BT-549): 18.1 µM (inactive)
- GI50 (CAKI-1): 20.3 µM (inactive)
- GI50 (CCRF-CEM): 15.2 µM (inactive)
- GI50 (COLO 205): 29.9 µM (inactive)
- GI50 (DU-145): 34.4 µM (inactive)
- GI50 (EKVX): 18.3 µM (inactive)
- GI50 (HCC 2998): 17.3 µM (inactive)
- GI50 (HCT-116): 18.2 µM (inactive)
- GI50 (HCT-15): 17 µM
- GI50 (HL-60): 12.7 µM (inactive)
- GI50 (HOP-62): 61.9 µM (inactive)
- GI50 (HOP-92): 27.6 µM (inactive)
- GI50 (HT-29): 30.5 µM (inactive)
- GI50 (Hs-578T): 81.3 µM (inactive)
- GI50 (IGROV-1): 35.6 µM (inactive)
- GI50 (K562): 27.5 µM (inactive)
- GI50 (KM12): 32.9 µM (inactive)
- GI50 (LOX IMVI): 8.24 µM (inactive)
- GI50 (M14): 16.4 µM (inactive)
- GI50 (MCF7): 21 µM (inactive)
- GI50 (MDA-MB-231): 28.6 µM (inactive)
- GI50 (MDA-MB-435): 25.4 µM (inactive)
- GI50 (MDA-N): 23.4 µM (inactive)
- GI50 (MOLT-4): 17.8 µM (inactive)
- GI50 (Malme-3M): 18.2 µM (inactive)
- GI50 (NCI-H226): > 100 µM (inactive)
- GI50 (NCI-H23): 22.3 µM (inactive)
- GI50 (NCI-H460): 34.9 µM (inactive)
- GI50 (NCI-H522): 12.3 µM (inactive)
- GI50 (NCI/ADR-RES): 38.8 µM (inactive)
- GI50 (OVCAR-3): 21.9 µM (inactive)
- GI50 (OVCAR-4): 76.6 µM (inactive)
- GI50 (OVCAR-5): 27.7 µM (inactive)
- GI50 (OVCAR-8): 22.3 µM (inactive)
- GI50 (PC-3): 45.8 µM (inactive)
- GI50 (RPMI-8226): 30.9 µM (inactive)
- GI50 (RXF 393): 16.7 µM (inactive)
- GI50 (SF-268): 40.3 µM (inactive)
- GI50 (SF-295): > 100 µM (inactive)
- GI50 (SF-539): 19.1 µM (inactive)
- GI50 (SK-MEL-28): 17.4 µM (inactive)
- GI50 (SK-MEL-2): 16 µM (inactive)
- GI50 (SK-MEL-5): 19 µM (inactive)
- GI50 (SK-OV-3): > 100 µM (inactive)
- GI50 (SN12C): 24.4 µM (inactive)
- GI50 (SNB-19): > 100 µM (inactive)
- GI50 (SNB-75): 49.8 µM (inactive)
- GI50 (SR): 20.8 µM (inactive)
- GI50 (SW-620): 16.6 µM (inactive)
- GI50 (T47D): 30.9 µM (inactive)
- GI50 (TK-10): 35.6 µM (inactive)
- GI50 (U-251): 43 µM (inactive)
- GI50 (UACC-257): 39.2 µM (inactive)
- GI50 (UACC-62): 16.6 µM (inactive)

SMILES: O=[N+]([O-])c1ccc2c(c1)C1=NN(c3ccccc3)C(c3ccccc3Br)C1CCC2 (stereo not given)
- GI50 (786-0): > 50 µM (inactive)
- GI50 (A498): 12.1 µM (inactive)
- GI50 (A549): 28.1 µM (inactive)
- GI50 (ACHN): 22.8 µM (inactive)
- GI50 (BT-549): 13.2 µM (inactive)
- GI50 (CAKI-1): 23.4 µM (inactive)
- GI50 (CCRF-CEM): 2.19 µM (inactive)
- GI50 (COLO 205): 33.7 µM (inactive)
- GI50 (DU-145): 16.3 µM (inactive)
- GI50 (EKVX): 20.5 µM (inactive)
- GI50 (HCC 2998): 21.9 µM (inactive)
- GI50 (HCT-116): 12.4 µM (inactive)
- GI50 (HCT-15): 13.3 µM
- GI50 (HL-60): 7.64 µM (inactive)
- GI50 (HOP-62): 43.6 µM (inactive)
- GI50 (HOP-92): 14.6 µM (inactive)
- GI50 (HT-29): 16.1 µM (inactive)
- GI50 (Hs-578T): 48.1 µM (inactive)
- GI50 (IGROV-1): 27.5 µM (inactive)
- GI50 (K562): 4.53 µM (inactive)
- GI50 (KM12): 16.9 µM (inactive)
- GI50 (LOX IMVI): 19.9 µM (inactive)
- GI50 (M14): 23.2 µM (inactive)
- GI50 (MCF7): 11.2 µM (inactive)
- GI50 (MDA-MB-231): 36.3 µM (inactive)
- GI50 (MDA-MB-435): 15 µM (inactive)
- GI50 (MDA-N): 17.3 µM (inactive)
- GI50 (MOLT-4): 6.97 µM (inactive)
- GI50 (Malme-3M): 24.8 µM (inactive)
- GI50 (NCI-H226): 25.5 µM (inactive)
- GI50 (NCI-H23): 18.7 µM (inactive)
- GI50 (NCI-H460): 22.6 µM (inactive)
- GI50 (NCI-H522): 13.3 µM (inactive)
- GI50 (NCI/ADR-RES): 12.7 µM (inactive)
- GI50 (OVCAR-3): 16.2 µM (inactive)
- GI50 (OVCAR-4): 19.9 µM (inactive)
- GI50 (OVCAR-5): > 50 µM (inactive)
- GI50 (OVCAR-8): 22.2 µM (inactive)
- GI50 (PC-3): 31.2 µM (inactive)
- GI50 (RPMI-8226): 6.85 µM (inactive)
- GI50 (RXF 393): 14.4 µM (inactive)
- GI50 (SF-268): 21.9 µM (inactive)
- GI50 (SF-295): 17.9 µM (inactive)
- GI50 (SF-539): 19.1 µM (inactive)
- GI50 (SK-MEL-28): 21.1 µM (inactive)
- GI50 (SK-MEL-2): 24.7 µM (inactive)
- GI50 (SK-MEL-5): 15.4 µM (inactive)
- GI50 (SK-OV-3): > 50 µM (inactive)
- GI50 (SN12C): 24.6 µM (inactive)
- GI50 (SNB-19): 25.7 µM (inactive)
- GI50 (SNB-75): 42.8 µM (inactive)
- GI50 (SR): 4.05 µM (inactive)
- GI50 (SW-620): 9.12 µM (inactive)
- GI50 (T47D): 10.2 µM (inactive)
- GI50 (TK-10): 38.2 µM (inactive)
- GI50 (U-251): 25.3 µM (inactive)
- GI50 (UACC-257): 19 µM (inactive)
- GI50 (UACC-62): 9.62 µM (inactive)
- GI50 (UO-31): 20.6 µM (inactive)
